Residues, ends and D or L forms follow the SMILES beside them.
Assays:
Type in all cases: cell-based, E. coli
[1] = target: T1, WT-YdgR (Escherichia coli, UniProt P77304); test: cell-based; conditions: IC50 (inhibition of β-Ala-Lys(AMCA) uptake)
T1 construct: expressed in transfected cells; host or cells: E. coli BL21(DE3)pLysS, pTTQ18-ydgR, IPTG-induced
T1 sequence (P77304 1-500): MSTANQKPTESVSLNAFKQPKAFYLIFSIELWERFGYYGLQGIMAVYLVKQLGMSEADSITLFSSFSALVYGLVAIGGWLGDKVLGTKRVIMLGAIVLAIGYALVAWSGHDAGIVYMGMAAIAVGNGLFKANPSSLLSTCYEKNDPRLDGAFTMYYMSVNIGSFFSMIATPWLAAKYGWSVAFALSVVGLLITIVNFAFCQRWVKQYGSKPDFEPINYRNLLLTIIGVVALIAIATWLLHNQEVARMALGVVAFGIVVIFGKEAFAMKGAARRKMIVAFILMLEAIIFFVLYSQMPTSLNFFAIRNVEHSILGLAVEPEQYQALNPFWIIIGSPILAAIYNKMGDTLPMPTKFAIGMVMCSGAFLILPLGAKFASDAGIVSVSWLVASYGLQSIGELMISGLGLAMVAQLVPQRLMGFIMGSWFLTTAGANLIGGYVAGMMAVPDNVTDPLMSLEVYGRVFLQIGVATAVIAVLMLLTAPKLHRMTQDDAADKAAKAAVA
Procedure: Plasmids were transformed into E. coli BL21(DE3)pLysS cells by heat shock and transformants were selected on agar plates containing 100 µg/mL ampicillin and 34 µg/mL chloramphenicol. Single transformants were inoculated into 2 mL LB-media with antibiotics as above and grown overnight. The cultures were diluted 1∶50 in 5 mL LB-media with antibiotics as above, and at an OD600 of 0.5–0.8 protein expression was induced by the addition of 1 mM isopropyl β-D-1-thiogalactopyranoside (IPTG). […]
(§1) Uptake assays were performed as previously described, [20]. In a final assay volume of 100 µL; 0.2 mM β-Ala-Lys-N-7-amino-4-methylcoumarin-3-acetic acid (β-Ala-Lys(AMCA), Biotrend) (10 µL) and various concentrations of ligands (purchased from Bachem or Sigma-Aldrich) or uptake buffer (50 µL) were incubated with bacterial cell suspension (OD600 = 10, 40 µL) at 37°C. After 5 min, the uptake was stopped by addition of 500 µL ice-cold uptake buffer followed by immediate centrifugation and washing twice in ice-cold uptake buffer. Finally the cell pellet was resuspended in 100 µL uptake buffer, and the uptake was quantified by fluorescence measurements (excitation at 340 nm and emission at 460 nm) on a Safire 2 fluorimeter. Non-specific uptake was measured as described above on IPTG-induced E. coli BL21(DE3)pLysS cells harboring the empty pTTQ18 vector. All uptake assay experiments were reproduced at least three times independently and data analyses were performed using GraphPad Prism ver. 5.

[2] = target: T2, YdgR Tyr292Phe (Escherichia coli, UniProt P77304, Y292F); test: β-Ala-Lys(AMCA) uptake inhibition assay, YdgR Tyr292Phe; conditions: 0.2 mM β-Ala-Lys(AMCA), 5 min incubation, pH 6.5; ±SEM, n≥3
T2 construct: host or cells: E. coli BL21(DE3)pLysS
Procedure: (§2) Plasmids were transformed into E. coli BL21(DE3)pLysS cells by heat shock and transformants were selected on agar plates containing 100 µg/mL ampicillin and 34 µg/mL chloramphenicol. Single transformants were inoculated into 2 mL LB-media with antibiotics as above and grown overnight. The cultures were diluted 1∶50 in 5 mL LB-media with antibiotics as above, and at an OD600 of 0.5–0.8 protein expression was induced by the addition of 1 mM isopropyl β-D-1-thiogalactopyranoside (IPTG). The cells were harvested after three hours of induction by centrifugation and resuspended in uptake buffer (50 mM MES pH 6.5, 140 mM NaCl, 5.4 mM KCl, 1.8 mM CaCl2, 0.8 mM MgSO4, and 5 mM glucose).
as §1, with “After 5 min, the uptake was stopped by addition of 500 µL ice-cold uptake buffer followed by immediate centrifugation and washing twice in ice-cold uptake buffer.” left out, “All uptake assay experiments were reproduced at least three times independently and data analyses were performed using GraphPad Prism ver. 5.” left out

[3] = target: T3, YjdL Gly284Met (Escherichia coli, UniProt P39276, G284M); test: β-Ala-Lys(AMCA) uptake assay, YjdL Gly284Met; conditions: 0.2 mM, 5 min, pH 6.5 (Figure 3)
T3 construct: host or cells: E. coli BL21(DE3)pLysS
Procedure: as §2
as §1, with “After 5 min, the uptake was stopped by addition of 500 µL ice-cold uptake buffer followed by immediate centrifugation and washing twice in ice-cold uptake buffer.” left out, “All uptake assay experiments were reproduced at least three times independently and data analyses were performed using GraphPad Prism ver. 5.” left out

[4] = target: T4, YjdL Tyr25Leu (Escherichia coli, UniProt P39276, Y25L); test: β-Ala-Lys(AMCA) uptake assay, YjdL Tyr25Leu; conditions: 0.2 mM, 5 min, pH 6.5 (Figure 3)
T4 construct: expressed in transfected cells; host or cells: E. coli BL21(DE3)pLysS, pTTQ18-yjdL mutant (QuikChange)
Procedure: as §2
as §1, with “After 5 min, the uptake was stopped by addition of 500 µL ice-cold uptake buffer followed by immediate centrifugation and washing twice in ice-cold uptake buffer.” left out, “All uptake assay experiments were reproduced at least three times independently and data analyses were performed using GraphPad Prism ver. 5.” left out

[5] = target: T5, YjdL Tyr21Arg (Escherichia coli, UniProt P39276, Y21R); test: β-Ala-Lys(AMCA) uptake assay, YjdL Tyr21Arg; conditions: 0.2 mM, 5 min, pH 6.5 (Figure 3)
T5 construct: host or cells: E. coli BL21(DE3)pLysS
Procedure: as §2
as §1, with “After 5 min, the uptake was stopped by addition of 500 µL ice-cold uptake buffer followed by immediate centrifugation and washing twice in ice-cold uptake buffer.” left out, “All uptake assay experiments were reproduced at least three times independently and data analyses were performed using GraphPad Prism ver. 5.” left out

[6] = target: T6, YjdL Lys117Gln (Escherichia coli, UniProt P39276, K117Q); test: β-Ala-Lys(AMCA) uptake assay, YjdL Lys117Gln; conditions: 0.2 mM, 5 min, pH 6.5 (Figure 3)
T6 construct: host or cells: E. coli BL21(DE3)pLysS
Procedure: as §2
as §1, with “After 5 min, the uptake was stopped by addition of 500 µL ice-cold uptake buffer followed by immediate centrifugation and washing twice in ice-cold uptake buffer.” left out, “All uptake assay experiments were reproduced at least three times independently and data analyses were performed using GraphPad Prism ver. 5.” left out

[7] = system: YjdL Tyr113Asn; test: β-Ala-Lys(AMCA) uptake assay, YjdL Tyr113Asn; conditions: 0.2 mM, 5 min, pH 6.5 (Figure 3)
Procedure: as §2
as §1, with “After 5 min, the uptake was stopped by addition of 500 µL ice-cold uptake buffer followed by immediate centrifugation and washing twice in ice-cold uptake buffer.” left out, “All uptake assay experiments were reproduced at least three times independently and data analyses were performed using GraphPad Prism ver. 5.” left out

[8] = target: T7, YjdL Lys117Arg (Escherichia coli, UniProt P39276, K117R); test: β-Ala-Lys(AMCA) uptake assay, YjdL Lys117Arg; conditions: 0.2 mM, 5 min, pH 6.5 (Figure 3)
T7 construct: host or cells: E. coli BL21(DE3)pLysS
Procedure: as §2
as §1, with “After 5 min, the uptake was stopped by addition of 500 µL ice-cold uptake buffer followed by immediate centrifugation and washing twice in ice-cold uptake buffer.” left out, “All uptake assay experiments were reproduced at least three times independently and data analyses were performed using GraphPad Prism ver. 5.” left out

[9] = target: T8, YjdL Asp392Glu (Escherichia coli, UniProt P39276, D392E); test: β-Ala-Lys(AMCA) uptake assay, YjdL Asp392Glu; conditions: standard conditions: 0.2 mM, 5 min, pH 6.5 (Figure 3)
T8 construct: host or cells: E. coli BL21(DE3)pLysS
Procedure: as §2
as §1, with “After 5 min, the uptake was stopped by addition of 500 µL ice-cold uptake buffer followed by immediate centrifugation and washing twice in ice-cold uptake buffer.” left out, “All uptake assay experiments were reproduced at least three times independently and data analyses were performed using GraphPad Prism ver. 5.” left out

T5 sequence (P39276 whole entry Y21R): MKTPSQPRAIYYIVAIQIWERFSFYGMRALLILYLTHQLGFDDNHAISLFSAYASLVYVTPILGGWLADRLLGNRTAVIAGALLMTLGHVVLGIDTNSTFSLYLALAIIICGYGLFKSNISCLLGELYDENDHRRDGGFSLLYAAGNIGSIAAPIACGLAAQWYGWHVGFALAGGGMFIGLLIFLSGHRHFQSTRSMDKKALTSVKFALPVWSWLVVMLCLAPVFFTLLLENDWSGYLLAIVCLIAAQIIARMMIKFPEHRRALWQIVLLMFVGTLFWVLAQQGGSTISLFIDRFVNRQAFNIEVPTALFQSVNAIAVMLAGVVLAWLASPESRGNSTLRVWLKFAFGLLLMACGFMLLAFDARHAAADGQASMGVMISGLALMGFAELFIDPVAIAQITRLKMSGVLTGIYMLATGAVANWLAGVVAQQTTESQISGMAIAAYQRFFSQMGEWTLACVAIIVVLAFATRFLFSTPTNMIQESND
T6 sequence (P39276 whole entry K117Q): as the sequence (P39276 whole entry Y21R) above, with R21Y, K117Q counted along it
T7 sequence (P39276 whole entry K117R): as the sequence (P39276 whole entry Y21R) above, with R21Y, K117R counted along it
T2 sequence (P77304 whole entry Y292F): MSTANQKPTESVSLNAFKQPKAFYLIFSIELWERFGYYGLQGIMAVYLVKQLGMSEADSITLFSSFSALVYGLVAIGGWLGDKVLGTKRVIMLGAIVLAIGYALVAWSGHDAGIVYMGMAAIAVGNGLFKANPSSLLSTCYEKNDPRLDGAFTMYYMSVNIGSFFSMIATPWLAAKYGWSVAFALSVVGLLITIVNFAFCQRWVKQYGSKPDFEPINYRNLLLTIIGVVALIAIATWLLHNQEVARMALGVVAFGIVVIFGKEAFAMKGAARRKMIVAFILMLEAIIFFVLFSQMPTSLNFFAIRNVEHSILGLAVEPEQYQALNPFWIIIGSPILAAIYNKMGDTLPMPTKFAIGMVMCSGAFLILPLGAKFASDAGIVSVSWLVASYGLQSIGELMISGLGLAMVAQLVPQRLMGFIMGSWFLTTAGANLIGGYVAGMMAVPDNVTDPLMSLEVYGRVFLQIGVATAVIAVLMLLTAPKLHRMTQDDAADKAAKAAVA
T8 sequence (P39276 whole entry D392E): as the sequence (P39276 whole entry Y21R) above, with R21Y, D392E counted along it
T4 sequence (P39276 whole entry Y25L): as the sequence (P39276 whole entry Y21R) above, with R21Y, Y25L counted along it
T3 sequence (P39276 whole entry G284M): as the sequence (P39276 whole entry Y21R) above, with R21Y, G284M counted along it

Row | Compound | IC50 ([1]; WT-YdgR a) [µM] | IC50 ([1]; WT-YdgR b) [µM] | IC50 [2] [µM] | β-Ala-Lys(AMCA) uptake level, YjdL Gly284Met [3] [%] | β-Ala-Lys(AMCA) uptake level, YjdL Tyr25Leu [4] [%] | β-Ala-Lys(AMCA) uptake level, YjdL Tyr21Arg [5] [%] | β-Ala-Lys(AMCA) uptake level, YjdL Lys117Gln [6] [%] | increase of β-Ala-Lys(AMCA) uptake, YjdL Tyr113Asn [7] [fold] | β-Ala-Lys(AMCA) uptake level, YjdL Lys117Arg [8] [%] | β-Ala-Lys(AMCA) uptake level, YjdL Asp392Glu [9] [%]
1 | C[C@H](N)C(=O)N[C@@H](C)C(=O)O [Ala-Ala] (H-Ala-Ala-OH) | 390 ± 40 | 1040 ± 60 | 150 ± 30 | – | – | – | – | – | – | –
2 | β-Ala-Lys-N-7-amino-4-methylcoumarin-3-acetic acid [β-Ala-Lys(AMCA)] | – | – | – | 20 | 14 | 11 | 9 | ~2 | 17 | 26

— paper PMC3478282, “Probing the Putative Active Site of YjdL: An Unusual Proton-Coupled Oligopeptide Transporter from E. coli” (PLoS ONE, 2012)
